The experiment concerns HIV-1 (NL4-3 strain). Briefly: microbe, parasite or virus in culture. To be noted: MT4-GFP cells infected with HIV-1 NL4-3, IP or IC50 from 4-parameter dose response curve. In kind it is cell-based.
Setting [1] is: 0% normal human serum (NHS), read-out: WILD TYPE CELL ASSAY Viking IP (0% NHS).
[2] abbreviates: 100% normal human serum (NHS), read-out: WILD TYPE CELL ASSAY Viking IP (100% NHS).
Setting [3] is: Human immunodeficiency virus 1, NL43, 0% normal human serum (NHS), read-out: WILD TYPE CELL ASSAY Viking IP (0% NHS).
The mark [4] stands for this setting: Human immunodeficiency virus 1, NL43, 100% normal human serum (NHS), read-out: WILD TYPE CELL ASSAY Viking IP (100% NHS).

pIC50: −log10 of the molar value. Read-outs that look alike come from different tables or passages of the source.

Turning to `COCCC[C@]1(C)C(=O)c2c(O)c(=O)c(C(=O)NCc3c(F)cc(F)cc3F)cn2C[C@@H]1OC` [Compound 91], the pIC50 is 8.42 under setting [1] and 6.56 under setting [2]. `COc1c2n(cc(-c3nnc(Cc4ccc(F)cc4F)s3)c1=O)CC(OC)C(C)(C)C2=O` (stereo not shown) [Compound 6]: the pIC50 under setting [1] is 8.00. `COCCC[C@]1(C)C(=O)c2c(O)c(=O)c(C(=O)NCc3ccc(F)cc3F)cn2C[C@@H]1OC` [Compound 75]: the pIC50 under setting [1] was 9.30 and the pIC50 under setting [2] was 7.89. On to `C[C@@]12COCO[C@H]1Cn1cc(C(=O)NCc3ccc(F)cc3F)c(=O)c(O)c1C2=O` [Compound 12], for which the pIC50 is, setting by setting: under setting [1], 8.59; under setting [2], 6.23.

Take `COC[C@]1(C)C(=O)c2c(O)c(=O)c(C(=O)NCc3ccc(F)cc3F)cn2C[C@@H]1OC` [Compound 55]: the pIC50 was 8.09 under setting [1] and under 5.08 under setting [2]. As for `COC12CCCC1(C)C(=O)c1c(O)c(=O)c(C(=O)NCc3ccc(F)cc3F)cn1C2` (stereo not shown) [Compound 105], the pIC50 is 8.46 under setting [3] and 5.64 under setting [4].

Regarding `C[C@]12CCCO[C@H]1Cn1cc(C(=O)NCc3ccc(F)cc3F)c(=O)c(O)c1C2=O` [Compound 7], the pIC50 under setting [2] was 6.81 and the pIC50 under setting [3] was 8.66.

`COCC[C@@]1(C)C(=O)c2c(O)c(=O)c(C(=O)NCc3ccccc3F)cn2C[C@@H]1OC` [Compound 67]: the pIC50 reads like this: under setting [1], 8.77; under setting [2], 6.81. For `COCC[C@@]1(C)C(=O)c2c(O)c(=O)c(C(=O)NCc3cccc(Cl)c3F)cn2C[C@@H]1OC` [Compound 62], the pIC50 by setting is: under setting [3], 9.05; under setting [4], 6.32. `CC1(C)CCC[C@@]2(C)C(=O)c3c(O)c(=O)c(C(=O)NCc4ccc(F)cc4F)cn3C[C@@]12O` [Compound 109]: the pIC50 by setting is: under setting [3], 8.49; under setting [4], 6.15. In the case of `COC1(C)CCn2cc(C(=O)NCc3ccc(F)cc3F)c(=O)c(O)c2C1=O` (stereo not shown) [Compound 52], the pIC50 under setting [1] was 8.47 and the pIC50 under setting [2] is under 5.08. For the compound `COCCCO[C@@]12CCCC[C@]1(C)C(=O)c1c(O)c(=O)c(C(=O)NCc3ccc(F)cc3F)cn1C2` [Compound 116], the pIC50 is, setting by setting: under setting [3], 8.64; under setting [4], 6.59. Regarding `C[C@]12CCCO[C@H]1Cn1cc(C(=O)NCc3ccccc3F)c(=O)c(O)c1C2=O` (single isomer, unassigned) [Compound 21], the pIC50 was 8.62 under setting [3] and 6.41 under setting [4]. Taken in the same sequence, the figures for `C[C@]12CCCC[C@@]1(O)Cn1cc(C(=O)NCc3ccc(F)c(Cl)c3)c(=O)c(O)c1C2=O` [Compound 97] were 8.62 and 6.82. As to `Cc1nc(CNC(=O)c2cn3c(c(O)c2=O)C(=O)[C@@]2(C)CCCO[C@H]2C3)sc1C` [Compound 31], the pIC50 runs as follows: under setting [3], 7.32; under setting [4], under 5.08. As for `C[C@]12CCCO[C@@H]1Cn1cc(C(=O)NCc3ccc(F)cc3F)c(=O)c(O)c1C2=O` (single isomer, unassigned) [Compound 33], the pIC50 was 9.30 under setting [1] and 6.55 under setting [2]. For `CO[C@]12CCCC[C@@]1(C)C(=O)c1c(O)c(=O)c(C(=O)NCc3ccc(F)cc3F)cn1C2` [Compound 113], the pIC50 was 8.89 under setting [3] and under 5.10 under setting [4]. Take `COc1ncc(CNC(=O)c2cn3c(c(O)c2=O)C(=O)[C@@]2(C)CCCO[C@H]2C3)cc1Cl` (single isomer, unassigned) [Compound 32]: the pIC50 runs as follows: under setting [3], 8.09; under setting [4], under 5.08.

As for `COCCO[C@]12CCCC[C@@]1(C)C(=O)c1c(O)c(=O)c(C(=O)NCc3ccc(F)cc3F)cn1C2` [Compound 115], the pIC50 by setting is: under setting [3], 8.85; under setting [4], 6.65. On the same counts, the results for `COCCC[C@@]1(C)C(=O)c2c(O)c(=O)c(C(=O)NCc3c(F)cc(F)cc3F)cn2C[C@@H]1OC` [Compound 92] are 8.89 and 7.23. On to `COC[C@@]1(C)C(=O)c2c(O)c(=O)c(C(=O)NCc3ccc(F)cc3F)cn2C[C@@H]1OC` [Compound 57], for which the pIC50 is, setting by setting: under setting [1], 8.33; under setting [2], 5.46. Take `C[C@]12CCCO[C@H]1Cn1cc(C(=O)NCc3ccc4c(c3)OCO4)c(=O)c(O)c1C2=O` (single isomer, unassigned) [Compound 29]: the pIC50 under setting [3] is 7.77 and the pIC50 under setting [4] is under 5.08. Consider `COC1Cn2cc(C(=O)NCc3ccc(F)cc3F)c(=O)c(O)c2C(=O)C1(C)C` (stereo not shown) [Compound 5], for which the pIC50 was 8.59 under setting [3] and 6.99 under setting [4]. With `COCC[C@@]1(C)C(=O)c2c(O)c(=O)c(C(=O)NCc3cccc(Cl)c3F)cn2C[C@@H]1OC` [Compound 63], the pIC50 is 9.05 under setting [1] and 6.60 under setting [2]. As for `COCCC[C@@]1(C)C(=O)c2c(O)c(=O)c(C(=O)NCc3ccc(F)cc3F)cn2C[C@@H]1OC` [Compound 76], the pIC50 reads like this: under setting [3], 9.05; under setting [4], 7.46. Regarding `C[C@@]12COCO[C@H]1Cn1cc(C(=O)NCc3ccc(F)cc3F)c(=O)c(O)c1C2=O` [Compound 11], the pIC50 under setting [3] was 8.49 and the pIC50 under setting [4] was 6.32. Regarding `COCCC[C@@]1(C)C(=O)c2c(O)c(=O)c(C(=O)NCc3cccc(Cl)c3F)cn2C[C@@H]1OC` [Compound 81], the pIC50 was 9.00 under setting [1] and 6.53 under setting [2]. Turning to `Cc1c(F)ccc(CNC(=O)c2cn3c(c(O)c2=O)C(=O)[C@@]2(C)CCCO[C@H]2C3)c1F` (single isomer, unassigned) [Compound 27], the pIC50 runs as follows: under setting [3], 8.70; under setting [4], under 5.08.

Consider `COCC[C@]1(C)C(=O)c2c(O)c(=O)c(C(=O)NCc3ccccc3F)cn2C[C@@H]1OC` [Compound 69], for which the pIC50 runs as follows: under setting [1], 8.92; under setting [2], 7.62.

On to `C[C@@]12CCCO[C@@H]1Cn1cc(C(=O)NCc3cccc(Cl)c3F)c(=O)c(O)c1C2=O` (single isomer, unassigned) [Compound 15], for which the pIC50 was 9.30 under setting [3] and 7.14 under setting [4]. Consider `C[C@]12CCCO[C@@H]1Cn1cc(C(=O)NCc3cccc(Cl)c3F)c(=O)c(O)c1C2=O` (single isomer, unassigned) [Compound 35], for which the pIC50 by setting is: under setting [2], 6.47; under setting [3], 9.40. With `COCC[C@]1(C)C(=O)c2c(O)c(=O)c(C(=O)NCc3ccc(F)cc3F)cn2C[C@@H]1OC` [Compound 60], the pIC50 is 8.54 under setting [3] and 5.65 under setting [4].

As to `CN1CCC[C@]2(C)C(=O)c3c(O)c(=O)c(C(=O)NCc4ccc(F)cc4F)cn3C[C@H]12` [Compound 124], the pIC50 is, setting by setting: under setting [3], 8.49; under setting [4], 7.28.

As to `C[C@@]12CC=CCO[C@@H]1Cn1cc(C(=O)NCc3ccc(F)cc3F)c(=O)c(O)c1C2=O` [Compound 48], the pIC50 was 8.77 under setting [1] and 6.04 under setting [2]. `C[C@]12CCCO[C@H]1Cn1cc(C(=O)NCc3c(F)cccc3F)c(=O)c(O)c1C2=O` (single isomer, unassigned) [Compound 22]: the pIC50 was 8.57 under setting [3] and 6.60 under setting [4]. For `COCCC[C@@]1(C)C(=O)c2c(O)c(=O)c(C(=O)NCc3ccccc3F)cn2C[C@@H]1OC` [Compound 89], the pIC50 by setting is: under setting [1], 8.68; under setting [2], 7.14. On the same counts, the results for `COCCC[C@@]1(C)C(=O)c2c(O)c(=O)c(C(=O)NCc3ccc(F)cc3F)cn2C[C@@H]1OC` [Compound 77] are 8.92 and 7.22. `COCCO[C@@]12CCCC[C@]1(C)C(=O)c1c(O)c(=O)c(C(=O)NCc3ccc(F)cc3F)cn1C2` [Compound 114]: the pIC50 was 8.72 under setting [3] and 6.86 under setting [4]. Consider `C[C@@]12CCCCO[C@@H]1Cn1cc(C(=O)NCc3ccc(F)cc3F)c(=O)c(O)c1C2=O` (single isomer, unassigned) [Compound 39], for which the pIC50 is 7.48 under setting [2] and 9.10 under setting [3].

Regarding `C[C@@]12CCCCO[C@@H]1Cn1cc(C(=O)NCc3ccc(F)cc3F)c(=O)c(O)c1C2=O` (single isomer, unassigned) [Compound 40], the pIC50 runs as follows: under setting [1], 8.82; under setting [2], 6.35. In the case of `COCO[C@]12CCCC[C@@]1(C)C(=O)c1c(O)c(=O)c(C(=O)NCc3ccc(F)cc3F)cn1C2` [Compound 111], the pIC50 was 8.52 under setting [3] and 6.07 under setting [4]. With `C[C@]12CCCN[C@H]1Cn1cc(C(=O)NCc3ccc(F)cc3F)c(=O)c(O)c1C2=O` [Compound 121], the pIC50 was 8.59 under setting [3] and 7.21 under setting [4].

Turning to `C[C@]12COCO[C@H]1Cn1cc(C(=O)NCc3ccc(F)cc3F)c(=O)c(O)c1C2=O` [Compound 13], the pIC50 is, setting by setting: under setting [3], 8.42; under setting [4], 6.91.

For the compound `C[C@@]12CCCO[C@@H]1Cn1cc(C(=O)NCc3c(F)cc(F)cc3F)c(=O)c(O)c1C2=O` (single isomer, unassigned) [Compound 14], the pIC50 under setting [3] was 9.15 and the pIC50 under setting [4] is 7.59. `COC12CCCC1(C)C(=O)c1c(O)c(=O)c(C(=O)NCc3ccc(F)cc3)cn1C2` (stereo not shown) [Compound 106]: the pIC50 under setting [3] is 8.48 and the pIC50 under setting [4] was 5.48. With `CC1(C)CCn2cc(C(=O)NCc3ccc(F)cc3)c(=O)c(O)c2C1=O` [Compound 2], the pIC50 under setting [3] is 7.57. Turning to `COCCC[C@]1(C)C(=O)c2c(O)c(=O)c(C(=O)NCc3c(F)cccc3F)cn2C[C@@H]1OC` [Compound 83], the pIC50 is 9.05 under setting [1] and 7.72 under setting [2].

With `C[C@]12CC=CCO[C@@H]1Cn1cc(C(=O)NCc3ccc(F)cc3F)c(=O)c(O)c1C2=O` [Compound 49], the pIC50 is 5.39 under setting [2] and 8.49 under setting [3].

For the origin of these results see patent US10201533B2, “Substituted quinolizine derivatives useful as HIV integrase inhibitors” (priority 2013, dated 2019).
